Assay results reported in patent publication US5549910A, “Preparation of liposome and lipid complex compositions” (priority 1994, dated 1996).
Structures can show the parent of a compound that is named as a salt. Where two headings read alike, the source gives them in different places.

What was measured:
[1] = Solubility and solution stability; assay type: physicochemical
Procedure: Solutions of the polyene antibiotics amphotericin B (30 mM) and nystatin (50 mM) were prepared in DMSO. The primaricin aqueous suspension obtained from Sigma was lyophilized and resuspended in various solvents. […] The polyene antibiotics were combined with the various lipids in a solvent mixture of DMSO, DMSO:MP or DMSO:EtOH (7:3) and then injected into the aqueous phase. The preparations formed were transferred to a dialysis bag and dialyzed versus 100 volumes of distilled water, changed twice unless otherwise indicated. The ratio of the components, exact solvent mixtures and other conditions are given in the results. Samples of the preparations were dissolved in methanol and the polyene concentration determined spectrophotometrically (Szoka et al., supra): amphotericin B at 406 nm, nystatin at 306 nm and primaricin at 318 nm.

[2] = Acute mortality (death within 24 hours of drug administration) in immunosuppressed rabbits challenged with A. fumigatus; assay type: in vivo, rabbit; conditions: animals dead/total
Procedure: Liposomes were prepared with amphotericin B and cholesterol sulfate as described in Example 3. An immunosuppressive neutropenic rabbit model of invasive aspergillosis was used to compare the lipidic particle formulation with free amphotericin B.
Twenty-eight rabbits were immunosuppressed by administration of cyclophosphamide and triamcinolone. The rabbits were then challenged with 10^6 A. fumigatus. After 24 hours, the rabbits were divided into three treatment groups: eight rabbits received 4.5 mg/Kg/day free amphotericin B; four rabbits received 7.5 mg/Kg/day free amphotericin B; five rabbits received 6-9 mg/Kg/day amphotericin B lipidic particles (equivalent to 3-4.5 mg/Kg/day amphotericin B); three rabbits received 15 mg/Kg/day amphotericin B lipidic particles (equivalent to 7.5 mg/Kg/day amphotericin B); and eight rabbits were controls.
Treatment was continued for 30 days for the 4.5 mg/Kg free amphotericin B and 6-9 mg/Kg lipidic particle treatment groups.

[3] = system: A. fumigatus; test: Immunosuppressive neutropenic rabbit model of invasive aspergillosis, organ cultures; assay type: in vivo, A. fumigatus (in rabbits); conditions: 30 days; Free AmpB 4.5 mg/Kg/day; Lipidic-AmpB 6-9 mg/Kg/day
[4] = pH 7.4; cited from earlier work

Compound: CC(C)CCC[C@@H](C)[C@H]1CC[C@H]2[C@@H]3CC=C4C[C@@H](OC(=O)CCC(=O)O)CC[C@]4(C)[C@H]3CC[C@]12C [Chems, cholesterol hemisuccinate]
- solubility in DMSO [1]: soluble

Compound: CC(C)CCC[C@@H](C)[C@H]1CC[C@H]2[C@@H]3CC=C4C[C@@H](OS(=O)(=O)O)CC[C@]4(C)[C@H]3CC[C@]12C [CholSO4, cholesterol sulfate]
- solubility in DMSO ([1]; DMSO): soluble

Compound: CC(C)CCC[C@@H](C)[C@H]1CC[C@H]2[C@@H]3CC=C4C[C@@H](O)CC[C@]4(C)[C@H]3CC[C@]12C [Cholesterol]
- solubility in 1-methyl-2-pyrrolidinone ([1]; 1-methyl-2-pyrrolidinone): exceedingly soluble

Compound: CC1/C=C/C=C/C=C/C=C/C=C/C=C/C=C/C(OC2OC(C)C(O)C(N)C2O)CC2OC(O)(CC(O)CC(O)C(O)CCC(O)CC(O)CC(=O)OC(C)C(C)C1O)CC(O)C2C(=O)O (stereo not shown) [Free AmpB]
- Acute mortality (death within 24 hours) ([2]; 4.5 mg/Kg): 3/8
- Acute mortality (death within 24 hours) ([2]; 7.5 mg/Kg): 4/4
- Organ Cultures (No. Sterile/Total), Kidney [3]: 5/5
- Organ Cultures (No. Sterile/Total), Liver [3]: 5/5
- Organ Cultures (No. Sterile/Total), Lung [3]: 3/5

Compound: CC1C/C=C/C=C/C=C/C=C/C(OC2OC(C)C(O)C(N)C2O)CC2OC(O)(CC(O)CC3OC3/C=C/C(=O)O1)CC(O)C2C(=O)O (stereo not shown) [Primaricin]
- solubility in DMSO [1]: very soluble
- stability of solution in DMSO:MP [1]: stable yellow solution

Compound: COc1cccc2c1C(=O)c1c(O)c3c(c(O)c1C2=O)C[C@@](O)(C(=O)CO)C[C@@H]3O[C@H]1C[C@H](N)[C@H](O)[C@H](C)O1 [doxorubicin]
- aqueous solubility [4]: low aqueous solubility
- solubility in DMSO ([1]; DMSO): very soluble

Compound: cis-platinum
- solubility in DMSO ([1]; DMSO): exceedingly soluble
